Like-named read-outs stand apart in the source and are kept apart here.
Tests used:
Format in all cases: binding
HCoV-OC43 gRNA and sgRNA = conditions: for target (unweighted spectral count, OC43 Probe II capture) / target (unweighted spectral count): tested against no-probe control; for target (unweighted spectral count, OC43 Probe II capture): FDR<10%; for target (unweighted spectral count): OC43 Probe II, infected cells; for target (unweighted spectral count, OC43 Probe II) / background (unweighted spectral count, no-probe control): type n_48_v, 48 hpi; for target (unweighted spectral count, OC43 Probe II): OC43 Probe II capture on infected cells; for background (unweighted spectral count, no-probe control): no-probe control on infected cells; for target (spectral count) / background (spectral count): type s_36_m, Probe II; for target (spectral count): HCoV-OC43-infected HCT-8 cells; for background (spectral count): uninfected-probe control
[1] = tested on: SARS-CoV-2 gRNA and sgRNAs; conditions: for target (unweighted spectral count in RNP capture): Probe II capture, LC-MS/MS LFQ; for background (unweighted spectral count in control): no-probe control pull-down, used as background for Probe II
SARS-CoV-2 gRNA = conditions: for target (unweighted spectral count of the protein in the RNP capture): LC-MS/MS, Probe I sample (first 199 lines of Table 2)
gRNA of HCoV-OC43 = conditions: for target (spectral count, OC43 Probe I RNP capture) / background (spectral count, no-probe control): type n_48_v: 48 hours post-infection; for target (spectral count, OC43 Probe I RNP capture): infected cells, unweighted spectral count; for background (spectral count, no-probe control): no-probe control on infected cells; for target (spectral count) / background (spectral count): type g_36_m, 36 hpi, Probe I; for target (spectral count): HCoV-OC43-infected HCT-8 cells; for background (spectral count): uninfected-probe control

| Substance | target (unweighted spectral count, OC43 Probe II capture) (HCoV-OC43 gRNA and sgRNA; 24 hpi, type n_24_v) | target (unweighted spectral count, OC43 Probe II capture) (HCoV-OC43 gRNA and sgRNA; 36 hpi, type n_36_v) | target (unweighted spectral count) (HCoV-OC43 gRNA and sgRNA; 12 hpi (type n_12_v)) | target (unweighted spectral count in RNP capture) ([1]; […]) | background (unweighted spectral count in control) [1] | target (unweighted spectral count of the protein in the RNP capture) (SARS-CoV-2 gRNA; […]) | target (unweighted spectral count) (HCoV-OC43 gRNA and sgRNA; 24 hpi (type n_24_v)) | target (unweighted spectral count, OC43 Probe II) (HCoV-OC43 gRNA and sgRNA) | background (unweighted spectral count, no-probe control) (HCoV-OC43 gRNA and sgRNA) | target (spectral count, OC43 Probe I RNP capture) (gRNA of HCoV-OC43) | background (spectral count, no-probe control) (gRNA of HCoV-OC43) | target (unweighted spectral count of the protein in the RNP capture experiment) ([1]; […], LC-MS/MS label-free quantification, probe pool not given) | back-ground (unweighted spectral count of the protein in the control experiment) ([1]; protein background of the control (e.g. no-probe) experiment, […]) | target (spectral count) (HCoV-OC43 gRNA and sgRNA; 36 hpi) | background (spectral count) (HCoV-OC43 gRNA and sgRNA; 36 hpi) | target (unweighted spectral count in RNP capture) (SARS-CoV-2 gRNA; Probe I capture, […], LC-MS/MS LFQ) | background (unweighted spectral count in control) (SARS-CoV-2 gRNA; no-probe control pull-down, used as background for Probe I) | target (spectral count) (gRNA of HCoV-OC43) | background (spectral count) (gRNA of HCoV-OC43) |
| --- | --- | --- | --- | --- | --- | --- | --- | --- | --- | --- | --- | --- | --- | --- | --- | --- | --- | --- | --- |
| G3BP1 | 5 | 8 | 5 | 54 | 1 | 55 |  |  |  |  |  |  |  |  |  |  |  |  |  |
| XRCC6 |  | 11 |  | 9 | 1 | 10 | 7 | 17 | 1 | 12 | 1 |  |  |  |  |  |  |  |  |
| VIM |  |  |  |  |  | 16 |  |  |  |  |  | 17 | 4 |  |  |  |  |  |  |
| NPM1 | 7 |  | 4 | 17 | 1 | 13 |  |  |  |  |  |  |  |  |  |  |  |  |  |
| HNRNPU |  | 69 | 24 |  | 3 | 75 | 40 | 72 | 8 | 80 | 8 |  |  |  |  |  |  |  |  |
| PTBP1: host protein, UniProt P26599 |  | 61 | 17 |  |  | 108 | 33 | 43 | 5 |  |  |  |  | 61 | 12 |  |  |  |  |
| TAF15: host protein, UniProt Q92804 |  |  | 5 | 8 | 1 |  |  | 8 | 1 | 11 | 1 |  |  | 8 | 1 | 5 | 1 |  |  |
| FAM98A |  | 4 |  |  |  | 7 |  | 5 | 1 |  |  |  |  |  |  |  |  |  |  |
| MRPL28: host protein, UniProt Q13084 |  |  |  |  |  | 12 |  | 7 | 1 | 10 | 1 |  |  |  |  |  |  | 13 | 1 |
| YBX3: host protein, UniProt P16989 |  |  | 7 | 73 | 1 | 41 | 10 |  |  |  |  |  |  |  |  |  |  | 13 | 2 |
